Measured values from ChEMBL document CHEMBL4190162, “SAR and identification of 2-(quinolin-4-yloxy)acetamides as Mycobacterium tuberculosis cytochrome bc1 inhibitors” (Medchemcomm, 2016).
In brackets after ≈: the same amount, converted by molar mass. Activity calls are given as the source filed them. No cut-off for these calls is given here.

Legend:
[1] = system: Mycobacterium tuberculosis; experiment: Antimycobacterial activity against Mycobacterium tuberculosis H37Rv measured after 6 days by resazurin dye based fluorescence assay; assay type: functional; details: 144 h
[2] = system: Mycobacterium tuberculosis; experiment: Antimycobacterial activity against Mycobacterium tuberculosis H37Rv after 2 weeks by microplate alamar blue assay; assay type: functional; details: 336 h
[3] = system: Mycobacterium tuberculosis; experiment: Antimycobacterial activity against Mycobacterium tuberculosis H37Rv measured after 1 week; assay type: functional; details: 168 h
[4] = system: Mycobacterium tuberculosis; experiment: Antimycobacterial activity against Mycobacterium tuberculosis H37Rv measured after 2 weeks; assay type: functional; details: 336 h
[5] = system: Mycobacterium tuberculosis; experiment: Antimycobacterial activity against Mycobacterium tuberculosis H37Rv BSG001; assay type: functional, organism-based
[6] = system: Mycobacterium tuberculosis H37Rv; experiment: Inhibition of Mycobacterium tuberculosis H37Rv cytochrome bc1 oxidase assessed as reduction in ATP level measured up to 24 hrs under anaerobic condition
Escherichia coli = experiment: Antibacterial activity against Escherichia coli 25922; assay type: functional, organism-based; details: ATCC 25922
Staphylococcus aureus = experiment: Antibacterial activity against Staphylococcus aureus XEN36; assay type: functional, organism-based
[7] = system: Mycolicibacterium smegmatis; experiment: Antibacterial activity against Mycobacterium smegmatis; assay type: functional, organism-based
[8] = system: Mycobacteroides abscessus; experiment: Antibacterial activity against Mycobacterium abscessus; assay type: functional, organism-based
[9] = Cytotoxicity against human HepG2 cells after 24 to 48 hrs in presence of galactose by trypan blue dye-based hemocytometric method; assay type: cell-based
[10] = Cytotoxicity against human HepG2 cells after 24 to 48 hrs in presence of glucose by trypan blue dye-based hemocytometric method; assay type: cell-based

SMILES: COc1ccc2nc(C)cc(OCC(=O)Nc3cccc(C)c3)c2c1
- MIC90 [1]: 0.3 to 3.3 µM (≈ 0.101 to 1.11 µg/mL)

SMILES: Cc1cc(OCC(=O)Nc2ccccc2)c2cc(Br)ccc2n1
- MIC90 [1]: 0.3 to 3.3 µM (≈ 0.111 to 1.23 µg/mL)

SMILES: COc1ccccc1NC(=O)COc1cc(C)nc2ccc(Cl)cc12
- MIC [2]: 104 µM (≈ 37 µg/mL)
- MIC [3]: 26.4 µM (≈ 9.4 µg/mL)
- MIC [4]: > 140 µM
- Activity [5]: inactive
- inhibition [6]: Active
- Activity (Escherichia coli): inactive
- Activity (Staphylococcus aureus): inactive
- Activity [7]: inactive
- Activity [8]: inactive
- CC50 [9]: 99.2 µM
- CC50 [10]: 140 µM

SMILES: CCCCCNC(=O)COc1cc(C)nc2ccc(OC)cc12
- MIC [2]: 19.8 µM (≈ 6.25 µg/mL)
- MIC [3]: 158 µM (≈ 50 µg/mL)
- MIC [4]: 158 µM (≈ 50 µg/mL)
- Activity [5]: inactive
- inhibition [6]: Active
- Activity (Escherichia coli): inactive
- Activity (Staphylococcus aureus): inactive
- Activity [7]: inactive
- Activity [8]: inactive
- CC50 [9]: 106 µM
- CC50 [10]: > 158 µM

SMILES: COc1ccc2nc(C)cc(OCC(=O)Nc3ccccc3)c2c1
- MIC [2]: 0.62 µM (≈ 0.2 µg/mL)
- MIC [3]: 1.21 µM (≈ 0.39 µg/mL)
- MIC [4]: > 155 µM
- Activity [5]: inactive
- inhibition [6]: Active
- Activity (Escherichia coli): inactive
- Activity (Staphylococcus aureus): inactive
- Activity [7]: inactive
- Activity [8]: inactive
- CC50 [9]: 118 µM
- CC50 [10]: > 155 µM

SMILES: COc1ccc(NC(=O)COc2cc(C)nc3ccc(OC)cc23)c(OC)c1
- MIC [2]: 2.04 µM (≈ 0.78 µg/mL)
- MIC [3]: 24.6 µM (≈ 9.4 µg/mL)
- MIC [4]: 32.7 µM (≈ 12.5 µg/mL)
- Activity [5]: inactive
- inhibition [6]: Active
- Activity (Escherichia coli): inactive
- Activity (Staphylococcus aureus): inactive
- Activity [7]: inactive
- Activity [8]: inactive
- CC50 [9]: > 131 µM
- CC50 [10]: > 131 µM

SMILES: C#CCNC(=O)COc1cc(C)nc2ccc(OC)cc12
- MIC [2]: > 176 µM
- MIC [3]: > 176 µM
- MIC [4]: > 176 µM
- Activity [5]: inactive
- inhibition [6]: Active
- Activity (Escherichia coli): inactive
- Activity (Staphylococcus aureus): inactive
- Activity [7]: inactive
- Activity [8]: inactive
- CC50 [9]: > 176 µM
- CC50 [10]: > 176 µM

SMILES: COc1ccc2nc(C)cc(OCC(=O)Nc3ccc(OC)c(OC)c3)c2c1
- MIC [2]: 24.6 µM (≈ 9.4 µg/mL)
- MIC [3]: > 131 µM
- MIC [4]: > 131 µM
- Activity [5]: inactive
- inhibition [6]: Active
- Activity (Escherichia coli): inactive
- Activity (Staphylococcus aureus): inactive
- Activity [7]: inactive
- Activity [8]: inactive
- CC50 [9]: > 131 µM
- CC50 [10]: > 131 µM

SMILES: COc1ccc2nc(C)cc(OCC(=O)NCc3ccccc3)c2c1
- MIC [2]: 2.32 µM (≈ 0.78 µg/mL)
- MIC [3]: 3.57 µM (≈ 1.2 µg/mL)
- MIC [4]: > 148 µM
- Activity [5]: inactive
- inhibition [6]: Active
- CC50 [9]: > 149 µM
- CC50 [10]: > 149 µM
- MIC90 [1]: 0.3 to 3.3 µM (≈ 0.101 to 1.11 µg/mL)

SMILES: COc1ccc2nc(C)cc(OCC(=O)Nc3ccc(-c4ccccc4)cc3)c2c1
- MIC [2]: 1.51 µM (≈ 0.602 µg/mL)
- MIC [3]: > 125 µM
- MIC [4]: > 125 µM
- Activity [5]: inactive
- inhibition [6]: Active
- Activity (Escherichia coli): inactive
- Activity (Staphylococcus aureus): inactive
- Activity [7]: inactive
- Activity [8]: inactive
- CC50 [9]: > 126 µM
- CC50 [10]: > 126 µM

SMILES: COc1ccc2nc(C)cc(OCC(=O)NCCc3ccc(OC)c(OC)c3)c2c1
- MIC [2]: 122 µM (≈ 50.1 µg/mL)
- MIC [3]: > 122 µM
- MIC [4]: > 122 µM
- Activity [5]: inactive
- inhibition [6]: Active
- Activity (Escherichia coli): inactive
- Activity (Staphylococcus aureus): inactive
- Activity [7]: inactive
- Activity [8]: inactive
- CC50 [9]: > 122 µM
- CC50 [10]: > 122 µM

SMILES: COc1cccc(NC(=O)COc2cc(C)nc3ccc(OC)cc23)c1
- MIC [2]: 6.53 µM (≈ 2.3 µg/mL)
- MIC [3]: 142 µM (≈ 50 µg/mL)
- MIC [4]: > 142 µM
- Activity [5]: inactive
- inhibition [6]: Active
- Activity (Escherichia coli): inactive
- Activity (Staphylococcus aureus): inactive
- Activity [7]: inactive
- Activity [8]: inactive
- CC50 [9]: 24.7 µM
- CC50 [10]: 43 µM

SMILES: COc1ccc2nc(C)cc(OCC(=O)Nc3ccc4c(c3)OCO4)c2c1
- MIC [2]: 2.13 µM (≈ 0.78 µg/mL)
- MIC [3]: 4.26 µM (≈ 1.56 µg/mL)
- MIC [4]: > 136 µM
- Activity [5]: inactive
- inhibition [6]: Active
- Activity (Escherichia coli): inactive
- Activity (Staphylococcus aureus): inactive
- Activity [7]: inactive
- Activity [8]: inactive
- CC50 [9]: 39.6 µM
- CC50 [10]: 80 µM

SMILES: COc1ccc2nc(C)cc(OCC(=O)NCCc3ccc4c(c3)OCO4)c2c1
- MIC [2]: 31.7 µM (≈ 12.5 µg/mL)
- MIC [3]: ≥ 127 µM
- MIC [4]: > 127 µM
- Activity [5]: inactive
- inhibition [6]: Active
- Activity (Escherichia coli): inactive
- Activity (Staphylococcus aureus): inactive
- Activity [7]: inactive
- Activity [8]: inactive
- CC50 [9]: > 127 µM
- CC50 [10]: > 127 µM

SMILES: COc1ccc2nc(C)cc(OCC(=O)Nc3ccc(Cl)cc3)c2c1
- MIC [2]: 3.36 µM (≈ 1.2 µg/mL)
- MIC [3]: 104 µM (≈ 37 µg/mL)
- MIC [4]: > 140 µM
- Activity [5]: inactive
- inhibition [6]: Active
- Activity (Escherichia coli): inactive
- Activity (Staphylococcus aureus): inactive
- Activity [7]: inactive
- Activity [8]: inactive
- CC50 [9]: 71.1 µM
- CC50 [10]: 89.9 µM

SMILES: COc1ccccc1NC(=O)COc1cc(C)nc2ccc(C)cc12
- MIC [2]: 9.3 µM (≈ 3.13 µg/mL)
- MIC [3]: 56.5 µM (≈ 19 µg/mL)
- MIC [4]: > 74 µM
- Activity [5]: inactive
- inhibition [6]: Active
- Activity (Escherichia coli): inactive
- Activity (Staphylococcus aureus): inactive
- Activity [7]: inactive
- Activity [8]: inactive
- CC50 [9]: > 74 µM
- CC50 [10]: > 74 µM

SMILES: COc1ccccc1NC(=O)COc1cc(C)nc2ccc(Br)cc12
- MIC [2]: > 125 µM
- MIC [3]: 23.4 µM (≈ 9.4 µg/mL)
- MIC [4]: > 125 µM
- Activity [5]: inactive
- inhibition [6]: Active
- Activity (Escherichia coli): inactive
- Activity (Staphylococcus aureus): inactive
- Activity [7]: inactive
- Activity [8]: inactive
- CC50 [9]: > 125 µM
- CC50 [10]: > 125 µM

SMILES: COc1ccc2nc(C)cc(OCC(=O)Nc3cccc(Br)c3)c2c1
- MIC [2]: > 125 µM
- MIC [3]: 92.2 µM (≈ 37 µg/mL)
- MIC [4]: > 125 µM
- Activity [5]: inactive
- inhibition [6]: Active
- Activity (Escherichia coli): inactive
- Activity (Staphylococcus aureus): inactive
- Activity [7]: inactive
- Activity [8]: inactive
- CC50 [9]: > 125 µM
- CC50 [10]: > 125 µM

SMILES: Cc1cc(OCC(=O)NCc2ccccc2)c2cc(Br)ccc2n1
- MIC90 [1]: 0.3 to 3.3 µM (≈ 0.116 to 1.27 µg/mL)

SMILES: COc1ccccc1NC(=O)COc1cc(C)nc2ccc(C(F)(F)F)cc12
- MIC [2]: > 128 µM
- MIC [3]: > 128 µM
- MIC [4]: > 128 µM
- Activity [5]: inactive
- inhibition [6]: Active
- Activity (Escherichia coli): inactive
- Activity (Staphylococcus aureus): inactive
- Activity [7]: inactive
- Activity [8]: inactive
- CC50 [9]: > 128 µM
- CC50 [10]: > 128 µM

SMILES: COc1ccc2nc(C)cc(OCC(=O)Nc3ccccc3OC)c2c1
- MIC [2]: 1.11 µM (≈ 0.391 µg/mL)
- MIC [3]: 2.21 µM (≈ 0.779 µg/mL)
- MIC [4]: 53.9 µM (≈ 19 µg/mL)
- Activity [5]: inactive
- inhibition [6]: Active
- CC50 [9]: 19.6 µM
- CC50 [10]: > 142 µM
- MIC90 [1]: 0.3 to 3.3 µM (≈ 0.106 to 1.16 µg/mL)

SMILES: COc1ccc2nc(C)cc(OCC(=O)Nc3ccc(C)cc3)c2c1
- MIC [2]: 0.45 µM (≈ 0.151 µg/mL)
- MIC [3]: 0.45 µM (≈ 0.151 µg/mL)
- MIC [4]: > 149 µM
- Activity [5]: inactive
- inhibition [6]: Active
- Activity (Escherichia coli): inactive
- Activity (Staphylococcus aureus): inactive
- Activity [7]: inactive
- Activity [8]: inactive
- CC50 [9]: 41.5 µM
- CC50 [10]: > 149 µM

SMILES: COc1ccc2nc(C)cc(OCC(=O)NCc3ccc4c(c3)OCO4)c2c1
- MIC [2]: 0.53 µM (≈ 0.202 µg/mL)
- MIC [3]: 0.53 µM (≈ 0.202 µg/mL)
- MIC [4]: 24.7 µM (≈ 9.4 µg/mL)
- Activity [5]: inactive
- inhibition [6]: Active
- Activity (Escherichia coli): inactive
- Activity (Staphylococcus aureus): inactive
- Activity [7]: inactive
- Activity [8]: inactive
- CC50 [9]: 86.9 µM
- CC50 [10]: > 131 µM

SMILES: COCCNC(=O)COc1cc(C)nc2ccc(OC)cc12
- MIC [2]: 122 µM (≈ 37 µg/mL)
- MIC [3]: > 164 µM
- MIC [4]: > 164 µM
- Activity [5]: inactive
- inhibition [6]: Active
- Activity (Escherichia coli): inactive
- Activity (Staphylococcus aureus): inactive
- Activity [7]: inactive
- Activity [8]: inactive
- CC50 [9]: > 164 µM
- CC50 [10]: > 164 µM
